Read-outs that look alike come from different tables or passages of the source.
Assay: Phase I clinical trial: pharmacokinetics after single and multiple oral administrations
Format: in vivo, human
Settings: for AR / Cmax / AUC / AUC(0-inf) / AUC(0-t) / half-life: GM (%CV); for Cmax / Tmax / AUC / AUC(0-inf) / AUC(0-t) / half-life: human, plasma, oral; for Tmax: Median (min-max); for AUC: read-out: AUC0-τ
From the text: The PK parameters for single-dose administration mainly include peak concentration (Cmax), time to peak concentration (Tmax), half-life (T1/2), systemic clearance (CL), volume of distribution (Vd), AUC0-t, and AUC0-∞. The PK parameters for multiple-dose administration mainly include the area under the steady-state plasma concentration-time curve (AUCss), steady-state peak plasma concentration (Cmax, ss), steady-state trough plasma concentration (Cmin, ss), and steady-state time to peak plasma concentration (Tmax, ss).
Approximately eight dose groups in total were set in the dose escalation phase, which were 5 (the starting dose), 10, 20, 40, 60, 80, 100, and 125 mg, respectively. Subjects in all the dose groups received a single dose on day 1 (D1), and the blood samples were collected for pharmacokinetic (PK) assay and tolerability observation. If no grade 2 or a higher-level adverse event related to the investigational drug occurred during the single-dose period (5 to 7 days) (if such events occurred, dose adjustments would be made based on the toxicity according to the protocol), the subject entered the multiple-dose period (i.e., treatment period) 5 to 7 days later (7 days after the first administration in the first dose group (i.e., starting the multiple-dose treatment on day 8), and the intervals for the subsequent dose groups were determined based on the obtained tolerability and PK data). After entering the multiple-dose period, the subjects in the first dose group were initially administered with the drug once daily (QD) (if the PK data for the single-dose period had been obtained, the administration frequency for the multiple-dose period could be determined based on the PK data). The administration frequency for the subjects in the subsequent dose groups after entering the multiple-dose period was determined based on the obtained PK and tolerability data. In this trial, the administration frequency for all the subjects could be adjusted throughout the trial based on the continuously acquired safety and PK data. The four lower dose groups (5 mg, 10 mg, 20 mg and 40 mg) used an accelerated titration design, with one subject enrolled in each dose group. If any grade 2 or a higher-level adverse event related to the investigational drug occurred, the "3+3" dose escalation method would be switched to. The 60 mg dose group and the subsequent dose groups followed a "3+3" dose escalation method, and the MTD was determined. After the evaluation of the 8th dose group, if the researcher and the sponsor agreed that a higher dose group might have better efficacy and manageable safety, then a higher dose could be explored (e.g., the 9th dose group and the 10th dose group, at 150 mg and 180 mg, respectively). During the dose escalation, if a dose group was confirmed to have a preliminary antitumor effect and manageable safety (e.g., no DLT occurred in 3 subjects or only 1 out of 6 subjects experienced DLT), the dose level could be expanded after a discussion and confirmation by the researcher and the sponsor.
All the subjects in the dose escalation phase and dose expansion phase of this research needed to undergo intensive blood collection for PK study of the compound A, and all the subjects needed to undergo a population PK study of the compound A.

[1] = Multiple administrations, 40 mg
[2] = Multiple administrations, 60 mg
[3] = Multiple administrations, 80 mg
[4] = Multiple administrations, 100 mg
[5] = Multiple administrations, 125 mg

With [2H]C([2H])([2H])n1nc2c(c1C#N)-c1cnc(N)c(c1)O[C@H](C)c1cc(F)ccc1C(=O)N(C)C2 [compound A, (10R)-7-amino-12-fluoro-2-(methyl-d3)-10,16-dimethyl-15-oxo-10,15,16,17-tetrahydro-2H-8,4-(metheno)pyrazolo[4,3-h][2,5,11]benzoxadiazacyclotetradecine-3-carbonitrile] the AR [1] was 1.044(25 .1) [3], the AR [2] was 0.913(44.1 ) [3] and the AR [3] was 1.256(45.9) [4]. For the same compound, the AR [4] was 0.732(6 6.4) [3], the AR [5] was 0.606(36. 1) [3] and the Cmax (40 mg, Multiple administrations, 40 mg, read-out: Cmax, SS) was 387 ng/mL. For the same compound, the Tmax (40 mg, Multiple administrations) was 1 h, the Cmax (40 mg, Single administration, 40 mg, read-out: Cmax) was 392 ng/mL and the Tmax (40 mg, Single administration) was 0.98 h. For the same compound, the Cmax (60 mg, Multiple administrations, 60 mg, read-out: Cmax, SS) was 644 ng/mL, the Tmax (60 mg, Multiple administrations) was 0.533 h and the Cmax (60 mg, Single administration, 60 mg, read-out: Cmax) was 875 ng/mL. For the same compound, the Tmax (60 mg, Single administration) was 0.5 h, the Cmax (80 mg, Multiple administrations, 80 mg, read-out: Cmax, SS) was 589 ng/mL and the Tmax (80 mg, Multiple administrations) was 1.56 h. It also gave a Cmax (80 mg, Single administration, 80 mg, read-out: Cmax) of 524 ng/mL, a Tmax (80 mg, Single administration) of 0.7 h and a Cmax (100 mg, Multiple administrations, 100 mg, read-out: Cmax, SS) of 798 ng/mL. For the same compound, the Tmax (100 mg, Multiple administrations) was 1.97 h, the Cmax (100 mg, Single administration, 100 mg, read-out: Cmax) was 774 ng/mL and the Tmax (100 mg, Single administration) was 1.02 h. For the same compound, the Cmax (125 mg, Multiple administrations, 125 mg, read-out: Cmax, SS) was 987 ng/mL, the Tmax (125 mg, Multiple administrations) was 0.5 h and the Cmax (125 mg, Single administration, 125 mg, read-out: Cmax) was 1260 ng/mL. It also gave a Tmax (125 mg, Single administration) of 1.02 h, an AUC [1] of 3880 ng·h/mL and an AUC [2] of 5440 ng·h/mL. It also gave an AUC [3] of 5500 ng·h/mL, an AUC [4] of 7020 ng·h/mL and an AUC [5] of 7700 ng·h/mL. The AUC(0-inf) (Single administration, 40 mg) was 4710 ng·h/mL, the AUC(0-t) (Single administration, 40 mg) was 4440 ng·h/mL and the half-life (Single administration, 40 mg) was 27.8 h. It also gave an AUC(0-inf) (Single administration, 60 mg) of 12200 ng·h/mL, an AUC(0-t) (Single administration, 60 mg) of 11300 ng·h/mL and a half-life (Single administration, 60 mg) of 33.6 h. It also gave an AUC(0-inf) (Single administration, 80 mg) of 10100 ng·h/mL, an AUC(0-t) (Single administration, 80 mg) of 9140 ng·h/mL and a half-life (Single administration, 80 mg) of 34.2 h. It also gave an AUC(0-inf) (Single administration, 100 mg) of 14600 ng·h/mL, an AUC(0-t) (Single administration, 100 mg) of 13800 ng·h/mL and a half-life (Single administration, 100 mg) of 30.5 h. The AUC(0-inf) (Single administration, 125 mg) was 18700 ng·h/mL, the AUC(0-t) (Single administration, 125 mg) was 17800 ng·h/mL and the half-life (Single administration, 125 mg) was 29.2 h.
